Structures are written as SMILES. Like-named read-outs stand apart in the source and are kept apart here. Bounds are passed on as bounds.

Drawing on patent US20240025907A1, “QUINAZOLINE PAN-KRas INHIBITORS” (Mirati Therapeutics, Inc., priority 2022, published 2024), this text covers IC50 for 7 compounds.

In assay [1] the target is T1, KRas^G12D (Homo sapiens, UniProt P01116, G12D).
T1 construct: Biotinylated KRas (corresponding to amino acids 1-169, produced at Accelegan Inc.); biotin (biotinylated); purchased Accelegan Inc
Description: KRas TR-FRET tracer displacement binding assay, G12D. To be noted: 60-minute incubation. The essentials: (§1)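 TR-FRET displacement: biotinylated KRas (aa 1-169) incubated with Cy5-labelled tracer, terbium streptavidin and compound (1% DMSO final) in 50 mM HEPES pH 7.5, 5 mM MgCl2, 0.005% Tween-20, 1 mM DTT. Read after 60-minute room-temperature incubation.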

Assay [2] relates to KRas-mediated Phosphorylation of ERK in HCT116 cells. Briefly: Cisbio HTRF pERK assay, HCT116 cells. It counts as cell-based. To be noted: Homo sapiens, HCT-116, 3 h, HCT116 cells, 3 hrs compound; read-out: Inhibition (HTRF IC50 nM) of KRas-mediated Phosphorylation of ERK, HCT116. A general note: In TR-FRET formats the signal depends on donor and acceptor labels being close together.

In assay [3] the test system is KRas-mediated Phosphorylation of ERK in AsPC-1 cells. Description: Cisbio HTRF pERK assay, AsPC-1 cells. The note with it: 3 hrs compound, read-out: Inhibition (HTRF IC50 nM) of KRas-mediated Phosphorylation of ERK, AsPC-1. The assay is classed as cell-based.
Assay [4] relates to KRas-mediated Phosphorylation of ERK in H727 cells. Briefly: Cisbio HTRF pERK assay, H727 cells. It counts as cell-based. To be noted: 3 hrs compound, read-out: Inhibition (HTRF IC50 nM) of KRas-mediated Phosphorylation of ERK, H727.
Assay [5] addresses T2, KRas^G12R (Homo sapiens, UniProt P01116, G12R).
T2 construct: Biotinylated KRas (corresponding to amino acids 1-169, produced at Accelegan Inc.); biotin (biotinylated); purchased Accelegan Inc
Description: KRas TR-FRET tracer displacement binding assay, G12R. To be noted: 60-minute incubation. On the procedure: This Example illustrates that exemplary compounds of the present invention bind to KRas and are capable of displacing a labeled tracer ligand occupying the KRas binding site. KRas^WT, KRas^G12A, KRas^G12C, KRas^G12D, KRas^G12R, KRas^G12S, KRas^G12V, KRas^G13D, or KRas^Q61H was used in the assay.
The ability of a compound to bind to KRas was measured using a TR-FRET displacement assay. Biotinylated KRas (corresponding to amino acids 1-169, produced at Accelegan Inc.) was incubated with custom made Cy5 labelled tracer, terbium streptavidin (Cisbio Inc.) and compound (1% DMSO final) in buffer (50 mM HEPES, pH 7.5, 5 mM MgCl2, 0.005% Tween-20 and 1 mM DTT). After a 60-minute incubation at room temperature, the reaction was measured using a BMG LABTECH CLARIO star Plus via TR-FRET. […] The POC values were fit to a 4-parameter IC50 equation and the IC50 value reported in Table 1 (selected Examples 172-222).

In assay [6] the test system is KRas-mediated Phosphorylation of ERK in A549 cells. Description: Cisbio HTRF pERK assay, A549 cells. The assay is classed as cell-based. To be noted: Homo sapiens, A549, 3 h, A549 cells, 3 hrs compound; read-out: Inhibition (HTRF IC50 nM) of KRas-mediated Phosphorylation of ERK, A549.
Assay [7] has as its system KRas-mediated Phosphorylation of ERK in H358 cells. Briefly: Cisbio HTRF pERK assay, H358 cells. It counts as cell-based. To be noted: Homo sapiens, NCI-H358, 3 h, H358 cells, 3 hrs compound; read-out: Inhibition (HTRF IC50 nM) of KRas-mediated Phosphorylation of ERK, H358.
For assay [8], the system named is KRas-mediated Phosphorylation of ERK in H460 cells. Briefly: Cisbio HTRF pERK assay, H460 cells. It counts as cell-based. The note with it: Homo sapiens, NCI-H460, 3 h, H460 cells, 3 hrs compound; read-out: Inhibition (HTRF IC50 nM) of KRas-mediated Phosphorylation of ERK, H460.
In assay [9] the target is T3, KRas^G12V (Homo sapiens, UniProt P01116, G12V).
T3 construct: Biotinylated KRas (corresponding to amino acids 1-169, produced at Accelegan Inc.); biotin (biotinylated); purchased Accelegan Inc
Description: KRas TR-FRET tracer displacement binding assay, G12V. The note with it: 60-minute incubation. The essentials: as §1

Assay [10] has as its target T4, KRas^G12C (Homo sapiens, UniProt P01116, G12C).
T4 construct: Biotinylated KRas (corresponding to amino acids 1-169, produced at Accelegan Inc.); biotin (biotinylated); purchased Accelegan Inc
Briefly: KRas TR-FRET tracer displacement binding assay, G12C. The note with it: 60-minute incubation. The essentials:
as §1

Assay [11] concerns the target T5, KRas^G12S (Homo sapiens, UniProt P01116, G12S).
T5 construct: Biotinylated KRas (corresponding to amino acids 1-169, produced at Accelegan Inc.); biotin (biotinylated); purchased Accelegan Inc
Briefly: KRas TR-FRET tracer displacement binding assay, G12S. To be noted: 60-minute incubation. The essentials:
as §1

Assay [12] relates to KRas-mediated Phosphorylation of ERK in MKN1 cells. Briefly: Cisbio HTRF pERK assay, MKN1 cells. It counts as cell-based. The note with it: Homo sapiens, MKN-1, 3 hour compound, read-out: Inhibition (HTRF IC50 nM) of KRas-mediated Phosphorylation of ERK, MKN1. The procedure:
(§2) Inhibition of KRas Phosphorylation of ERK (HTRF) by Exemplary Compounds of Formula (I) • Cisbio HTRF Advanced pERK Assay Catalog #64AERPEH • Cell: MKN1, PSN1 • Procedure: • Day 1: Seed 6,000 cells/well −25 μl/well in 384-well white solid bottom plate; RPM1_10% FBS.

Assay [13] has as its target T6, KRas^WT (Homo sapiens, UniProt P01116).
T6 construct: Biotinylated KRas (corresponding to amino acids 1-169, produced at Accelegan Inc.); biotin (biotinylated); purchased Accelegan Inc
Briefly: KRas TR-FRET tracer displacement binding assay, WT. To be noted: 60-minute incubation. The essentials:
as §1

The test system of assay [14] is KRas-mediated Phosphorylation of ERK in H2009 cells. Briefly: Cisbio HTRF pERK assay, H2009 cells. It counts as cell-based. The note with it: Homo sapiens, NCI-H2009, H2009 cells; read-out: Inhibition (HTRF IC50 nM) of KRas-mediated Phosphorylation of ERK, H2009.
Assay [15] deals with KRas-mediated Phosphorylation of ERK in PSN1 cells. Description: Cisbio HTRF pERK assay, PSN1 cells. The assay is classed as cell-based. To be noted: Homo sapiens, PSN1, 3 h, 3 hour compound, read-out: Inhibition (HTRF IC50 nM) of KRas-mediated Phosphorylation of ERK, PSN1. The procedure: as §2

T1 sequence (P01116 1-169 isoform P01116-2 G12D): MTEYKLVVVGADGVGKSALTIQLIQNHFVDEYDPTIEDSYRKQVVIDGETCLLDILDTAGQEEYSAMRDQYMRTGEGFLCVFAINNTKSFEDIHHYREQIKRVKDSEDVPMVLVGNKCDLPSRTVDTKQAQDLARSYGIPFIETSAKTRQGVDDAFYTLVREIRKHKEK
T3 sequence (P01116 1-169 isoform P01116-2 G12V): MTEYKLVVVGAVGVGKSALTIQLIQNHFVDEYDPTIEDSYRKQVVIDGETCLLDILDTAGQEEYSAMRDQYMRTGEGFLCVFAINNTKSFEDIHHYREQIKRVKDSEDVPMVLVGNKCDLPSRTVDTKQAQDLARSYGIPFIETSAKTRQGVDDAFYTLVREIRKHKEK
T6 sequence (P01116 1-169 isoform P01116-2): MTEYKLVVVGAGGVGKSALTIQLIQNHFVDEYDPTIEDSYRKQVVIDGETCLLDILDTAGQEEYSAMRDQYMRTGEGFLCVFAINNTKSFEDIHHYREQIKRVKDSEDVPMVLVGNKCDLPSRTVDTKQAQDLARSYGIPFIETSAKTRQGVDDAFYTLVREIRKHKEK
T5 sequence (P01116 1-169 isoform P01116-2 G12S): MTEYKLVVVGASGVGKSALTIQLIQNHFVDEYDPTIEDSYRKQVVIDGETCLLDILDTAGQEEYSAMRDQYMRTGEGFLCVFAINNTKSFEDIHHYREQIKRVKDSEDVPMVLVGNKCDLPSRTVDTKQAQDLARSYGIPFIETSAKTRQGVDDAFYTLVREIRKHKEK
T4 sequence (P01116 1-169 isoform P01116-2 G12C): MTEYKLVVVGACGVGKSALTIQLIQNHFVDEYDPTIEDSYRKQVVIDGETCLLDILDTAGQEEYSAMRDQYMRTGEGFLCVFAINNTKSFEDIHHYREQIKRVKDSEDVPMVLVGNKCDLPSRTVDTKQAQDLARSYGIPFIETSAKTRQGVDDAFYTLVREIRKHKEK
T2 sequence (P01116 1-169 isoform P01116-2 G12R): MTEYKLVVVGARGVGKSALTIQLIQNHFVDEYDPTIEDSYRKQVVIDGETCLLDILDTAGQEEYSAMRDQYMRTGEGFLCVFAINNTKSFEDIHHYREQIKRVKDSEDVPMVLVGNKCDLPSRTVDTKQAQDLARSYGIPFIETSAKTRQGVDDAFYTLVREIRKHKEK

Take `CCc1c(F)ccc2cc(O)cc(-c3c(F)cc4c(NCc5c[nH]c6ncccc56)nc(OC[C@@]56CCCN5C[C@H](F)C6)nc4c3F)c12` [Example 174, 4-(4-(((1H-pyrrolo[2,3-b]pyridin-3-yl)methyl)amino)-6,8-difluoro-2-(((2R,7aS)-2-fluorotetrahydro-1H-pyrrolizin-7a(5H)-yl)methoxy)quinazolin-7-yl)-5-ethyl-6-fluoronaphthalen-2-ol]: the IC50 in assay [1] turned out to be 285 nM; in [2], 2260 nM; in assay [3] (Homo sapiens, ASPC1, 3 h) it was 4020 nM; in assay [4] (Homo sapiens, NCI-H727, 3 h) it was 694 nM; in assay [5], 9 nM; in assay [6], 734 nM. Also, the IC50 was 324 nM in assay [7], 968 nM in assay [8] and 9 nM in assay [9].

Turning to `C[C@@]1(O)COCCN(c2nc(OC[C@@]34CCCN3C[C@H](F)C4)nc3c(F)c(-c4ccc(F)c5sc(N)c(C#N)c45)c(F)cc23)C1` [Example 216, 2-amino-4-(6,8-difluoro-2-(((2R,7aS)-2-fluorotetrahydro-1H-pyrrolizin-7a(5H)-yl)methoxy)-4-((S)-6-hydroxy-6-methyl-1,4-oxazepan-4-yl)quinazolin-7-yl)-7-fluorobenzo[b]thiophene-3-carbonitrile], the IC50 in assay [10] turned out to be 6 nM; in [1], 4 nM; in [2] it was 346 nM; in [3] (Homo sapiens, ASPC1, 3 h) it was 175 nM; in assay [4] (Homo sapiens, NCI-H727, 3 h), 131 nM; in assay [11], 5 nM. The concentration for half-maximal inhibition (IC50) in assay [6] stood at 325 nM; in [12] it was 12 nM; in assay [13], 6 nM; in [7] it was 26 nM; in assay [14], 18 nM; in assay [8], 118 nM. The results for the IC50 in assay [15] and in assay [9] were 2440 nM and 4 nM, respectively.

As for `N#Cc1c(N)sc2c(F)ccc(-c3c(Cl)cc4c(N5CC(CO)C5)nc(OC[C@@]56CCCN5C[C@H](F)C6)nc4c3F)c12` [Example 221, 2-amino-4-(6-chloro-8-fluoro-2-(((2R,7aS)-2-fluorotetrahydro-1H-pyrrolizin-7a(5H)-yl)methoxy)-4-(3-(hydroxymethyl)azetidin-1-yl)quinazolin-7-yl)-7-fluorobenzo[b]thiophene-3-carbonitrile], the IC50 came to 573 nM in assay [2]; 962 nM in assay [3] (Homo sapiens, ASPC1, 3 h); 1240 nM in assay [4] (Homo sapiens, NCI-H727, 3 h); 635 nM in [6]; 86 nM in assay [12]; 154 nM in assay [7]. The results for the half-inhibitory concentration (IC50) in [14], in assay [8] and in [15] were 145 nM, 394 nM and 6040 nM, respectively.

As for `COc1nc(OC[C@@]23CCCN2C[C@H](F)C3)nc2c(F)c(-c3ccc(F)c4sc(N)c(C#N)c34)c(Cl)cc12` [Example 220, 2-amino-4-(6-chloro-8-fluoro-2-(((2R,7aS)-2-fluorotetrahydro-1H-pyrrolizin-7a(5H)-yl)methoxy)-4-methoxyquinazolin-7-yl)-7-fluorobenzo[b]thiophene-3-carbonitrile], the IC50 in [2] came out at 591 nM; in [3] (Homo sapiens, ASPC1, 3 h) it was 202 nM; in [4] (Homo sapiens, NCI-H727, 3 h), 123 nM; in [6], 261 nM; in [12], 45 nM; in [7], 63 nM. The IC50 stood at 49 nM in [14], 134 nM in assay [8] and 5870 nM in [15].

As to `C[C@@]1(O)COCCN(c2nc(OC[C@@]34CCCN3C[C@H](F)C4)nc3c(F)c(-c4ccc(F)c5sc(N)c(C#N)c45)c(Cl)cc23)C1` (atropisomer, axis not shown; (aS)) [Example 192, 2-amino-4-((R)-6-chloro-8-fluoro-2-(((2R,7aS)-2-fluorotetrahydro-1H-pyrrolizin-7a(5H)-yl)methoxy)-4-((S)-6-hydroxy-6-methyl-1,4-oxazepan-4-yl)quinazolin-7-yl)-7-fluorobenzo[b]thiophene-3-carbonitrile], the IC50 was 12 nM in assay [2]; 3 nM in assay [3]; 5 nM in assay [4]; 8 nM in assay [6]; 1 nM in [12]; 1 nM in [7]. The values for the IC50 in assay [14], in assay [8] and in assay [15] were 1 nM, 4 nM and 260 nM, respectively.

Turning to `N#Cc1c(N)sc2c(F)ccc(-c3c(Cl)cc4c(N5CC(O)C5)nc(OC[C@@]56CCCN5C[C@H](F)C6)nc4c3F)c12` [Example 219, 2-amino-4-(6-chloro-8-fluoro-2-(((2R,7aS)-2-fluorotetrahydro-1H-pyrrolizin-7a(5H)-yl)methoxy)-4-(3-hydroxyazetidin-1-yl)quinazolin-7-yl)-7-fluorobenzo[b]thiophene-3-carbonitrile], the IC50 was 2250 nM in assay [2]; 2900 nM in assay [3] (Homo sapiens, ASPC1, 3 h); 1070 nM in assay [4] (Homo sapiens, NCI-H727, 3 h); 3340 nM in assay [6]; 266 nM in [12]; 370 nM in assay [7]. Besides, the concentration for half-maximal inhibition (IC50) in assay [14] is 508 nM; in [8], 1120 nM; in [15], greater than 10000 nM.

On to `CN(C)C(=O)c1cc2n(n1)CCCN(c1nc(OC[C@@]34CCCN3C[C@H](F)C4)nc3c(F)c(-c4ccc(F)c5sc(N)c(C#N)c45)c(F)cc13)C2` [Example 215, 5-(7-(2-amino-3-cyano-7-fluorobenzo[b]thiophen-4-yl)-6,8-difluoro-2-(((2R,7aS)-2-fluorotetrahydro-1H-pyrrolizin-7a(5H)-yl)methoxy)quinazolin-4-yl)-N,N-dimethyl-5,6,7,8-tetrahydro-4H-pyrazolo[1,5-a][1,4]diazepine-2-carboxamide], for which the IC50 in [10] is 4 nM; in [1], less than 2 nM; in assay [2], 392 nM; in assay [3] (Homo sapiens, ASPC1, 3 h) it was 25 nM; in assay [4] (Homo sapiens, NCI-H727, 3 h), 35 nM; in assay [11], less than 2 nM. For the same compound, the IC50 in assay [6] is 393 nM; in assay [12], 13 nM; in assay [13] it was less than 2 nM; in assay [7], 21 nM; in assay [14], 34 nM; in [8], 223 nM. The half-inhibitory concentration (IC50) in assay [15] is 3820 nM; in [9], less than 2 nM.

Usually IC50 stands for the concentration that gives 50% inhibition.
